The target in the assay is T1, hVR1 (Homo sapiens, UniProt Q8NER1).
T1 construct: expressed in transfected cells; host or cells: HEK293
The assay can be described thus: Human VR1 (hVR1) Functional Assay (FLIPR intracellular calcium, capsaicin challenge). The assay is classed as cell-based. The conditions noted are these: capsaicin 0.030 μM, HEK293 cells expressing hVR1; for inhibition at 1 µM: test concentration 1 μM. (Calcium flux is commonly read through the fluorescence of an indicator in the cells.)

Molecules are shown by their SMILES. Where only a bound is given, the exact number is not on record here.

For 13 compounds, IC50 and inhibition results are on record in patent US7951829B2, “Benzimidazole modulators of VR1” (Janssen Pharmaceutica NV, priority 2006, dated 2011).

T1 sequence (Q8NER1 whole entry): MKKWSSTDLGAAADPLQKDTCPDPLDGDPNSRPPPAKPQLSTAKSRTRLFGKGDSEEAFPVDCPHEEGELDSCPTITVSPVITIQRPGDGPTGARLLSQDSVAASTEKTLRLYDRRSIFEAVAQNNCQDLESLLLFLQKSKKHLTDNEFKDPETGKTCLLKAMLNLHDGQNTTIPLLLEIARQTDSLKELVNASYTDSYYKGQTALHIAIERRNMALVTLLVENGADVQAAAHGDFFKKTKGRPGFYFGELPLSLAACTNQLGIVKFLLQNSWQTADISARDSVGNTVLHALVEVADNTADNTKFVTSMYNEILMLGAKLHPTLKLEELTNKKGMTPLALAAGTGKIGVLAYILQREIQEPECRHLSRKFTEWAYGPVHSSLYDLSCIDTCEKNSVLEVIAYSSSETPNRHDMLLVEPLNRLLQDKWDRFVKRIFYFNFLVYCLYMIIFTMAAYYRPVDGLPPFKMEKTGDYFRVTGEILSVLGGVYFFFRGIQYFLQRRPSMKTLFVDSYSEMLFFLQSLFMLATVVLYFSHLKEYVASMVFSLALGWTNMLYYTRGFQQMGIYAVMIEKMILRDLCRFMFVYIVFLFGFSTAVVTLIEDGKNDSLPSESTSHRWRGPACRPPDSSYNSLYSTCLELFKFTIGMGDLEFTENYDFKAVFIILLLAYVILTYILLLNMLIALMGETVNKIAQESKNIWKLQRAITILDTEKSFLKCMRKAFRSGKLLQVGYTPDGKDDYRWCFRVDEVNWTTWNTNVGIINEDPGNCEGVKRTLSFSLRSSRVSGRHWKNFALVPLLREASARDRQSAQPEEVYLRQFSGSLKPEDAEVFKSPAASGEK

Usually IC50 stands for the concentration that gives 50% inhibition. In general, inhibition refers to the share of the control response that was lost under treatment. Regarding `NS(=O)(=O)c1ccccc1-c1ccc2[nH]c([C@@H]3C[C@H]3c3ccc(C(F)(F)F)cc3)nc2c1` [Cpd 502, 2-{2-[(1R,2R)-2-(4-trifluoromethyl-phenyl)-cyclopropyl]-1H-benzimidazol-5-yl}-benzenesulfonamide], the IC50 came to 190 nM and the inhibition at 1 µM came to 82%.
On the same counts, the results for `CC(=O)c1ccccc1-c1cc2nc(/C=C/c3ccc(C(F)(F)F)cc3)[nH]c2cc1F` [Cpd 62, (E)-1-(2-{6-fluoro-2-[2-(4-trifluoromethyl-phenyl)-vinyl]-1H-benzimidazol-5-yl}-phenyl)-ethanone] are 200 nM and 100%.
For `CC(=O)c1ccccc1-c1cc2nc(/C=C/c3ccc(C(F)(F)F)cc3)[nH]c2cc1C(F)(F)F` [Cpd 57, (E)-1-(2-{6-trifluoromethyl-2-[2-(4-trifluoromethyl-phenyl)-vinyl]-1H-benzimidazol-5-yl}-phenyl)-ethanone], the inhibition at 1 µM came out at 15%.
With `CC(=O)Nc1ccccc1-c1ccc2[nH]c(/C=C/c3ccc(C(F)(F)F)cc3)nc2c1` [Cpd 478, (E)-N-(2-{2-[2-(4-trifluoromethyl-phenyl)-vinyl]-1H-benzimidazol-5-yl}-phenyl)-acetamide], the IC50 was over 500 nM.
In the case of `CC(C)(C)c1ccc(/C=C/c2nc3cc(-c4ccccc4CO)ccc3[nH]2)cc1` [Cpd 12, (E)-(2-{2-[2-(4-tert-butyl-phenyl)-vinyl]-1H-benzimidazol-5-yl}-phenyl)-methanol], the concentration for half-maximal inhibition (IC50) was found to be 10 nM and the inhibition at 1 µM was 100%.
The like results for `NS(=O)(=O)c1ccccc1-c1ccc2[nH]c(CCc3ccc(S(=O)(=O)C(F)(F)F)cc3)nc2c1` [Cpd 131, 2-{2-[2-(4-trifluoromethanesulfonyl-phenyl)-ethyl]-1H-benzimidazol-5-yl}-benzenesulfonamide] were, in that order, 31 nM and 96%.
Turning to `CNCc1ccccc1-c1ccc2[nH]c(/C=C/c3ccc(C(F)(F)F)cc3)nc2c1` [Cpd 485, (E)-methyl-(2-{2-[2-(4-trifluoromethyl-phenyl)-vinyl]-1H-benzimidazol-5-yl}-benzyl)-amine], the IC50 is over 500 nM.
As to `NS(=O)(=O)c1ccccc1-c1ccc2[nH]c(/C=C/c3ccc(Cl)cc3Cl)nc2c1` [Cpd 437, (E)-2-{2-[2-(2,4-dichloro-phenyl)-vinyl]-1H-benzimidazol-5-yl}-benzenesulfonamide], the half-inhibitory concentration (IC50) was found to be 24 nM and the inhibition at 1 µM was 97%.
On the same counts, the results for `CS(=O)(=O)c1ccccc1-c1ccc2[nH]c(/C=C/c3ccc(C(F)(F)F)cc3)nc2c1` [Cpd 422, (E)-5-(2-methanesulfonyl-phenyl)-2-[2-(4-trifluoromethyl-phenyl)-vinyl]-1H-benzimidazole] are 7 nM and 98%.
For `CS(=O)(=O)Nc1ccccc1-c1ccc2[nH]c(/C=C/c3ccc(F)c(Br)c3)nc2c1` [Cpd 409, (E)-N-(2-{2-[2-(3-bromo-4-fluoro-phenyl)-vinyl]-1H-benzimidazol-5-yl}-phenyl)-methanesulfonamide], the inhibition at 1 µM was 43%.
In the case of `NS(=O)(=O)c1ccccc1-c1ccc2[nH]c(CCc3cc(C(F)(F)F)ccc3C(F)(F)F)nc2c1` [Cpd 388, 2-{2-[2-(2,5-bis-trifluoromethyl-phenyl)-ethyl]-1H-benzimidazol-5-yl}-benzenesulfonamide], the IC50 was 54 nM and the inhibition at 1 µM came to 99%.
As for `Cc1ccc(/C=C/c2nc3cc(-c4ccccc4NS(C)(=O)=O)ccc3[nH]2)cc1` [Cpd 412, (E)-N-{2-[2-(2-p-tolyl-vinyl)-1H-benzimidazol-5-yl]-phenyl}-methanesulfonamide], the IC50 stood at 190 nM and the inhibition at 1 µM turned out to be 86%.
As to `CS(=O)(=O)Nc1ccccc1-c1cc2nc(/C=C/c3ccc(C(F)(F)F)cc3)[nH]c2cc1F` [Cpd 65, (E)-N-(2-{6-fluoro-2-[2-(4-trifluoromethyl-phenyl)-vinyl]-1H-benzimidazol-5-yl}-phenyl)-methanesulfonamide], the inhibition at 1 µM is 0%.
